Results: publication doi:10.1101/2025.09.18.677102, “Genomic plasticity drives olfactory adaptation in a pest fly” (bioRxiv, 2025)

Target: T1, DsuzOr22a (Drosophila suzukii, UniProt A0AB39ZTG6)
T1 construct: gene LOC108019602; full-length cDNA in pJFRC81 (GFP removed), UAS line expressed in D. melanogaster ab3A empty neuron (Or22ab-Gal4); with Odorant receptor coreceptor (Drosophila melanogaster, endogenous to the host neuron)
T1 sequence (A0AB39ZTG6 1-397): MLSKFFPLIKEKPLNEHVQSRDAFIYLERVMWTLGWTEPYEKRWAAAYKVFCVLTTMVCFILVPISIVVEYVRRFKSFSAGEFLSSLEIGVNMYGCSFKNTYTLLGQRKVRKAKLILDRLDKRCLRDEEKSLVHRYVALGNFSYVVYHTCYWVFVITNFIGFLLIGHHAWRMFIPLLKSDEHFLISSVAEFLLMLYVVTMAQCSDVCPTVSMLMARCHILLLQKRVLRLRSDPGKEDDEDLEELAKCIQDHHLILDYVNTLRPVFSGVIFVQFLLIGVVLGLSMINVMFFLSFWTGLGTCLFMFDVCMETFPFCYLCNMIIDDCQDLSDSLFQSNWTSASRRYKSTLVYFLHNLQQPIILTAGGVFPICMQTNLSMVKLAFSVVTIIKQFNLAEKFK
T1 sequence (Q9VNB5 1-486 partner): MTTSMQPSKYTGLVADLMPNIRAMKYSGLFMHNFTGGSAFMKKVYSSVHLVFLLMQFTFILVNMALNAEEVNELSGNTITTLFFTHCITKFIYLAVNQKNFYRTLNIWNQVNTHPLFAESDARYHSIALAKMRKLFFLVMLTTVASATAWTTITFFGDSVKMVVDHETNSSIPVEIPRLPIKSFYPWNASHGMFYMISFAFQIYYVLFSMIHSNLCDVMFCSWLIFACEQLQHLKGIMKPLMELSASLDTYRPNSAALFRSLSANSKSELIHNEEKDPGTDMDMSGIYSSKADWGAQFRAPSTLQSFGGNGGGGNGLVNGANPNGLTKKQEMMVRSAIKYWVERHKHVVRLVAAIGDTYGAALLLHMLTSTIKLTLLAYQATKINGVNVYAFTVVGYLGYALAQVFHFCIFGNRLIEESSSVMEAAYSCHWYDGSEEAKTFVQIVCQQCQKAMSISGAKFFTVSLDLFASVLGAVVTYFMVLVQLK
Experiment: single sensillum recording, empty neuron
Assay type: cell-based
Conditions: odorant 10^-4 dilution in hexane

CC(=O)OCCC(C)C [isoamyl acetate]
responses (spikes/s): toward several ripening fruit esters such as isobutyl acetate, butyl acetate, and isoamyl acetate

CCCCOC(C)=O [butyl acetate]
responses (spikes/s): toward several ripening fruit esters such as isobutyl acetate, butyl acetate, and isoamyl acetate

CC(=O)OCC(C)C [isobutyl acetate]
responses (spikes/s) (also dilution series): Or22a, which has shifted its tuning toward several ripening fruit esters such as isobutyl acetate
